Test results: PubChem BioAssay AID268 (DTP/NCI, 2004)
Values joined by “and” are separate entries in the source; they are usually repeats but may differ in a detail not shown here. Identical values can stand only once.

System: CD2F1 mice, P1798 lymphosarcoma sc, tumor weight T/C
Experiment: NCI In Vivo Anticancer Drug Screen. Data for tumor model P1798 Lymphosarcoma (subcutaneous) in CD2F1 (CDF1) mice
Settings: endpoint: mean tumor weight, higher = larger tumour
Description: The antitumor activity of compounds was measured in mice bearing transplantable tumors. Survival or tumor size were measured and the results are expressed as the measurement made in the treated group (T) divided by the measurement made in the vehicle treated control group (C). The tumor model used in this assay is P1798 Lymphosarcoma (subcutaneous) in CD2F1 (CDF1) mice

[1] = dose: 0.25 mg/kg/injection, schedule: Q01DX010 (ip), vehicle: saline
[2] = dose: 0.5 mg/kg/injection, schedule: Q01DX010 (ip), vehicle: saline
[3] = dose: 2.0 mg/kg/injection, schedule: Q01DX010 (ip), vehicle: saline
[4] = dose: 12.5 mg/kg/injection, schedule: Q01DX005 (sc), vehicle: steriod suspending solution
[5] = dose: 25.0 mg/kg/injection, schedule: Q01DX005 (sc), vehicle: steriod suspending solution
[6] = dose: 25.0 mg/kg/injection, schedule: Q03DX004 (sc), vehicle: steriod suspending solution
[7] = dose: 50.0 mg/kg/injection, schedule: Q01DX005 (sc), vehicle: steriod suspending solution
[8] = dose: 50.0 mg/kg/injection, schedule: Q02DX010 (sc), vehicle: steriod suspending solution
[9] = dose: 50.0 mg/kg/injection, schedule: Q03DX004 (sc), vehicle: steriod suspending solution
[10] = dose: 0.13 mg/kg/injection, schedule: Q01DX010 (ip), vehicle: saline
[11] = dose: 8.0 mg/kg/injection, schedule: Q01DX010 (ip), vehicle: saline
[12] = dose: 10.0 mg/kg/injection, schedule: Q01DX010 (ip), vehicle: saline
[13] = dose: 20.0 mg/kg/injection, schedule: Q01DX010 (ip), vehicle: saline

N#Cc1cn(C2OC(CO)C(O)C2O)c2ncnc(N)c12 (centres undefined)
T/C (dose: 0.06 mg/kg/injection, schedule: Q01DX010 (ip), vehicle: saline): 86 % of control
T/C (dose: 0.12 mg/kg/injection, schedule: Q01DX010 (ip), vehicle: saline): 61 % of control
T/C [1]: 69 % of control and 76 % of control
T/C [2]: 72 % of control
T/C (dose: 1.0 mg/kg/injection, schedule: Q01DX010 (ip), vehicle: saline): 68 % of control
T/C [3]: 62 % of control

CC1CC(C)OS(=O)O1 (centres undefined)
T/C (dose: 44.0 mg/kg/injection, schedule: Q01DX010 (ip), vehicle: saline): 70 % of control
T/C (dose: 66.0 mg/kg/injection, schedule: Q01DX010 (ip), vehicle: saline): 30 % of control

O=C1C=CC2(CCC23C=CC(=O)O3)O1 (centres undefined)
T/C (dose: 13.0 mg/kg/injection, schedule: Q01DX011 (ip), vehicle: saline): 74 % of control
T/C (dose: 20.0 mg/kg/injection, schedule: Q01DX011 (ip), vehicle: saline): 106 % of control
T/C (dose: 45.0 mg/kg/injection, schedule: Q01DX011 (ip), vehicle: saline): 108 % of control and 86 % of control
T/C (dose: 65.0 mg/kg/injection, schedule: Q01DX011 (ip), vehicle: saline): 103 % of control
T/C (dose: 100.0 mg/kg/injection, schedule: Q01DX011 (ip), vehicle: saline): 89 % of control

C[C@]12C[C@H](O)[C@H]3[C@@H](CCC4=CC(=O)CC[C@@]43C)[C@@H]1CC[C@@H]2C(=O)CO
T/C [4]: 88 % of control
T/C [5]: 97 % of control
T/C (dose: 25.0 mg/kg/injection, schedule: Q01DX010 (sc), vehicle: steriod suspending solution): 91 % of control and 69 % of control
T/C [6]: 91 % of control
T/C [7]: 63 % of control
T/C [8]: 91 % of control
T/C [9]: 56 % of control
T/C (dose: 75.0 mg/kg/injection, schedule: Q01DX010 (sc), vehicle: steriod suspending solution): 105 % of control
T/C (dose: 75.0 mg/kg/injection, schedule: Q02DX010 (sc), vehicle: steriod suspending solution): 101 % of control
T/C (dose: 100.0 mg/kg/injection, schedule: Q01DX005 (sc), vehicle: steriod suspending solution): 32 % of control
T/C (dose: 100.0 mg/kg/injection, schedule: Q02DX010 (sc), vehicle: steriod suspending solution): 101 % of control
T/C (dose: 100.0 mg/kg/injection, schedule: Q03DX004 (sc), vehicle: steriod suspending solution): 33 % of control

C[C@]12CC[C@H](OC3OC(CO)C(O)C(O)C3O)C[C@H]1CC[C@@H]1[C@@H]2CC[C@]2(C)[C@@H](C3=CCOC3=O)CC[C@]12O (some centres undefined)
T/C [10]: 71 % of control
T/C [1]: 96 % of control

O=C(Nc1ccc(NC2=NCCN2)cc1)c1ccc(C(=O)Nc2ccc(NC3=NCCN3)cc2)cc1
T/C [3]: 78 % of control
T/C (dose: 4.0 mg/kg/injection, schedule: Q01DX010 (ip), vehicle: saline): 81 % of control
T/C [11]: 36 % of control

CN1CC[C@]23c4c5ccc(O)c4O[C@H]2C(=O)CC[C@H]3[C@H]1C5
T/C [11]: 94 % of control and 80 % of control
T/C (dose: 16.0 mg/kg/injection, schedule: Q01DX010 (ip), vehicle: saline): 76 % of control and 79 % of control
T/C (dose: 32.0 mg/kg/injection, schedule: Q01DX010 (ip), vehicle: saline): 74 % of control and 85 % of control
T/C (dose: 64.0 mg/kg/injection, schedule: Q01DX010 (ip), vehicle: saline): 93 % of control and 70 % of control

CC(=O)Nc1c(Cl)cc2c(c1Cl)Cc1cc([N+](=O)[O-])ccc1-2
T/C (dose: 15.0 mg/kg/injection, schedule: Q01DX011 (ip), vehicle: carboxymethylcellulose (CMC)): 85 % of control
T/C (dose: 65.0 mg/kg/injection, schedule: Q01DX011 (ip), vehicle: carboxymethylcellulose (CMC)): 108 % of control

CC1(C)O[C@@H]2C[C@H]3[C@@H]4CCC5=CC(=O)C=C[C@]5(C)[C@@]4(F)[C@@H](O)C[C@]3(C)[C@]2(C(=O)CO)O1
T/C (dose: 0.5 mg/kg/injection, schedule: Q01DX005 (sc), vehicle: steriod suspending solution): 56 % of control
T/C (dose: 1.0 mg/kg/injection, schedule: Q01DX005 (sc), vehicle: steriod suspending solution): 59 % of control
T/C (dose: 1.0 mg/kg/injection, schedule: Q01DX010 (sc), vehicle: steriod suspending solution): 118 % of control
T/C (dose: 1.0 mg/kg/injection, schedule: Q02DX010 (sc), vehicle: steriod suspending solution): 101 % of control
T/C (dose: 1.0 mg/kg/injection, schedule: Q03DX004 (sc), vehicle: steriod suspending solution): 71 % of control
T/C (dose: 2.0 mg/kg/injection, schedule: Q01DX005 (sc), vehicle: steriod suspending solution): 33 % of control
T/C (dose: 2.0 mg/kg/injection, schedule: Q01DX010 (sc), vehicle: steriod suspending solution): 39 % of control
T/C (dose: 2.0 mg/kg/injection, schedule: Q02DX010 (sc), vehicle: steriod suspending solution): 80 % of control
T/C (dose: 2.0 mg/kg/injection, schedule: Q03DX004 (sc), vehicle: steriod suspending solution): 26 % of control
T/C (dose: 3.75 mg/kg/injection, schedule: Q01DX010 (sc), vehicle: steriod suspending solution): 1 % of control
T/C (dose: 4.0 mg/kg/injection, schedule: Q01DX005 (sc), vehicle: steriod suspending solution): 16 % of control
T/C (dose: 4.0 mg/kg/injection, schedule: Q01DX010 (sc), vehicle: steriod suspending solution): 23 % of control
T/C (dose: 4.0 mg/kg/injection, schedule: Q02DX010 (sc), vehicle: steriod suspending solution): 113 % of control
T/C (dose: 4.0 mg/kg/injection, schedule: Q03DX004 (sc), vehicle: steriod suspending solution): 7 % of control

CN(Cc1cnc2nc(N)nc(N)c2n1)c1c(Cl)cc(C(=O)NC(CCC(=O)O)C(=O)O)cc1Cl (centres undefined)
T/C [12]: 33 % of control
T/C [13]: 12 % of control

CC(=O)OCC(=O)[C@@]1(O)CC[C@H]2[C@@H]3C[C@H](C)C4=CC(=O)C=C[C@]4(C)[C@H]3[C@@H](O)C[C@@]21C
T/C (dose: 50.0 mg/kg/injection, schedule: Q01DX010 (sc), vehicle: steriod suspending solution): 5 % of control

OCC1OC(n2cnc3c(=S)nc[nH]c32)C(O)C1O (centres undefined)
T/C [12]: 65 % of control
T/C [13]: 54 % of control and 57 % of control
T/C (dose: 40.0 mg/kg/injection, schedule: Q01DX010 (ip), vehicle: saline): 57 % of control and 61 % of control
T/C (dose: 80.0 mg/kg/injection, schedule: Q01DX010 (ip), vehicle: saline): 40 % of control and 60 % of control
T/C (dose: 160.0 mg/kg/injection, schedule: Q01DX010 (ip), vehicle: saline): 61 % of control

C[C@]12C=CC(=O)C=C1CC[C@H]1[C@@H]3C[C@@H](O)[C@](O)(C(=O)CO)[C@@]3(C)C[C@H](O)[C@@]12F
T/C [4]: 16 % of control
T/C (dose: 12.5 mg/kg/injection, schedule: Q03DX004 (sc), vehicle: steriod suspending solution): 26 % of control
T/C [5]: 2 % of control
T/C (dose: 25.0 mg/kg/injection, schedule: Q02DX010 (sc), vehicle: steriod suspending solution): 115 % of control
T/C [6]: 6 % of control
T/C [7]: 2 % of control
T/C [8]: 122 % of control
T/C [9]: 5 % of control

CCCNc1ncnc2c1cnn2C
T/C (dose: 3.13 mg/kg/injection, schedule: Q01DX010 (ip), vehicle: saline): 90 % of control
T/C (dose: 6.25 mg/kg/injection, schedule: Q01DX010 (ip), vehicle: saline): 103 % of control
T/C (dose: 12.5 mg/kg/injection, schedule: Q01DX010 (ip), vehicle: saline): 86 % of control

Nc1c(Br)cc2c(c1Br)Cc1cc([N+](=O)[O-])ccc1-2
T/C (dose: 31.3 mg/kg/injection, schedule: Q01DX010 (ip), vehicle: saline): 72 % of control
T/C (dose: 62.5 mg/kg/injection, schedule: Q01DX010 (ip), vehicle: saline): 78 % of control
T/C (dose: 125.0 mg/kg/injection, schedule: Q01DX010 (ip), vehicle: saline): 61 % of control
T/C (dose: 250.0 mg/kg/injection, schedule: Q01DX010 (ip), vehicle: saline): 62 % of control

CSCS(=O)C[C@H](CO)NC(=O)/C=C/c1c(C)[nH]c(=O)[nH]c1=O (some centres undefined)
T/C [10]: 94 % of control
T/C [1]: 99 % of control
T/C [2]: 15 % of control

Nc1nncs1
T/C (dose: 1.88 mg/kg/injection, schedule: Q01DX010 (ip), vehicle: saline): 93 % of control
T/C (dose: 3.75 mg/kg/injection, schedule: Q01DX010 (ip), vehicle: saline): 68 % of control
T/C (dose: 7.5 mg/kg/injection, schedule: Q01DX010 (ip), vehicle: saline): 69 % of control
T/C (dose: 15.0 mg/kg/injection, schedule: Q01DX010 (ip), vehicle: saline): 52 % of control and 59 % of control
T/C (dose: 30.0 mg/kg/injection, schedule: Q01DX010 (ip), vehicle: saline): 7 % of control

OC(CBr)C(O)C(O)C(O)CBr (centres undefined)
T/C (dose: 25.0 mg/kg/injection, schedule: Q01DX010 (ip), vehicle: saline): 62 % of control
T/C (dose: 50.0 mg/kg/injection, schedule: Q01DX010 (ip), vehicle: saline): 70 % of control and 84 % of control
T/C (dose: 400.0 mg/kg/injection, schedule: Q01DX010 (ip), vehicle: saline): 98 % of control
